Usually inhibition stands for the percentage by which the read-out fell short of the control. A lower inhibition goes with little suppression. Broadly, the IC50 is the concentration needed to halve the response being measured.

Structures are written as SMILES.

The target of the first assay is T1, Biotinylated KRAS G12C protein (Homo sapiens, UniProt P01116, C118S/C51S/C80L/G12C).
T1 construct: 183 amino acids; biotin on K10
T1 sequence (P01116 with tags, fused parts or gaps isoform P01116-2 G12C/C51S/C80L/C118S): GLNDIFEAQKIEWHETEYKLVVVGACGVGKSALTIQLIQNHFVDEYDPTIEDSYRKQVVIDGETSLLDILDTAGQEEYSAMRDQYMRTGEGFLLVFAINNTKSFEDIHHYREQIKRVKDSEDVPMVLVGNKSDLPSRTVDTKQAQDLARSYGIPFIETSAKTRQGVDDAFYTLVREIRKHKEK
The assay is described as follows: SOS-catalyzed nucleotide exchange assay. The conditions noted are these: 10,000 nM; 60 minutes of preincubation prior to addition of SOS. The class given is biochemical. Here is the method: Compounds are added to this complex, and then after 60 minute incubation time the mixture is treated with recombinant SOS protein and unlabeled GTP. Small molecule inhibitors stabilize the Bodipy-GDP complex whereas the untreated protein rapidly exchanges Bodipy-GDP for unlabeled GTP resulting in reduced TR-FRET signal. […] This mixture is then further diluted to 90 nM in an assay buffer (20 mM HEPES, 150 mM sodium chloride, 10 mM magnesium chloride, and 0.005% Tween) containing 15 nM of Terbium-Streptavidin (Invitrogen, catalog #PV3577) and 900 nM of Bodipy-GDP and incubated at room temperature for six hours. […] Each test compound (10 mM stock in DMSO) is diluted in DMSO to make a 10-point, 3-fold dilution series in a 384-well low dead volume microplate (Labcyte, catalog #LP-0200). Once titrations are made, 10 nL of the diluted compounds is acoustically dispensed into a 384-well assay plate (Corning, catalog #3820) using an Echo 550 (Labcyte). […] Each well then receives 3 μL of 240 nM recombinant human SOS protein and 9 mM GTP (Sigma, G8877) in assay buffer and is incubated at room temperature for 60 minutes. The time-resolved fluorescence resonance energy transfer signal for the assay plate is measured on an Envision (PerkinElmer) plate reader: Excitation filter=340 nm; emission1=495 nm; emission2=520 nm; dichroic mirror=D400/D505; delay time=100 μs. The signal of each well is determined as the ratio of the emission at 520 nm to that at 495 nm. […] The apparent effect as a function of compound concentration is fit to a four parameter logistic equation.
For the compound `C=CC(=O)N1CCN(c2cc(C(=O)NCCN3CCOCC3)nc3c2CCN(c2cccc4ccccc24)C3)CC1` [Compound 9, 4-(4-acryloylpiperazin-1-yl)-N-(2-morpholinoethyl)-7-(naphthalen-1-yl)-5,6,7,8-tetrahydro-1,7-naphthyridine-2-carboxamide], 10 µM produced 33% inhibition.

Take `C=CC(=O)N1CCN(c2cc(C(=O)N(C)C3CCN(C)C3)nc3c2CCN(c2cccc4cccc(C)c24)C3)CC1` (racemic) [Compound 51, rac-4-(4-acryloylpiperazin-1-yl)-N-methyl-7-(8-methylnaphthalen-1-yl)-N-(1-methylpyrrolidin-3-yl)-5,6,7,8-tetrahydro-1,7-naphthyridine-2-carboxamide]: the inhibition at 10 µM turned out to be 36%.

The compound `C=CC(=O)N1CCN(c2cc(C(=O)NCCCN(C)C)nc3c2CCN(c2cccc4ccccc24)C3)CC1` [Compound 4, 4-(4-acryloylpiperazin-1-yl)-N-(3-(dimethylamino)propyl)-7-(naphthalen-1-yl)-5,6,7,8-tetrahydro-1,7-naphthyridine-2-carboxamide] returned an inhibition at 10 µM of 23%.

`C=CC(=O)N1CCN(c2cc(C(=O)N3CCC[C@@H]3CN3CCC(=O)N3)nc3c2CCN(c2cccc4cccc(C)c24)C3)CC1` [Compound 43, (R)-1-((1-(4-(4-acryloylpiperazin-1-yl)-7-(8-methylnaphthalen-1-yl)-5,6,7,8-tetrahydro-1,7-naphthyridine-2-carbonyl)pyrrolidin-2-yl)methyl)pyrazolidin-3-one] gave an inhibition at 10 µM of 33%.

Still in this assay, the particulars now being: apparent potency; preincubation time of 60 minutes prior to addition of SOS.
Turning to `C=CC(=O)N1CCN(c2cc(C(=O)N[C@@H]3[C@H](N)CCCC3(F)F)nc3c2CCN(c2cccc4cccc(C)c24)C3)C[C@@H]1CC#N` [Compound 95, 4-((S)-4-acryloyl-3-(cyanomethyl)piperazin-1-yl)-N-((1R,6R)-6-amino-2,2-difluorocyclohexyl)-7-(8-methylnaphthalen-1-yl)-5,6,7,8-tetrahydro-1,7-naphthyridine-2-carboxamide], the IC50 is 793 nM.

Regarding `C=CC(=O)N1CCN(c2cc(C(=O)NCCN(C)C)nc3c2CCN(c2cccc4ccccc24)C3)CC1` [Compound 2, 4-(4-acryloylpiperazin-1-yl)-N-(2-(dimethylamino)ethyl)-7-(naphthalen-1-yl)-5,6,7,8-tetrahydro-1,7-naphthyridine-2-carboxamide], the IC50 stood at 3150 nM.

Take `C=CC(=O)N1CCN(c2cc(C(=O)N[C@@H]3CCC[C@H]3N(C)C)nc3c2CCN(c2cccc4cccc(C)c24)C3)CC1` (racemic) [Compound 29, rac-4-(4-acryloylpiperazin-1-yl)-N-(trans-2-(dimethylamino)cyclopentyl)-7-(8-methylnaphthalen-1-yl)-5,6,7,8-tetrahydro-1,7-naphthyridine-2-carboxamide]: the IC50 came to 259 nM.

Consider `C=CC(=O)N1CCN(c2cc(C(=O)N[C@@H](C)CN(C)C)nc3c2CCN(c2cccc4cccc(C)c24)C3)CC1` [Compound 14, (S)-4-(4-acryloylpiperazin-1-yl)-N-(1-(dimethylamino)propan-2-yl)-7-(8-methylnaphthalen-1-yl)-5,6,7,8-tetrahydro-1,7-naphthyridine-2-carboxamide], for which the IC50 turned out to be 614 nM.

Take `C=CC(=O)N1CCN(c2cc(C(=O)N[C@H]3CCN(C)C3)nc3c2CCN(c2cccc4cccc(C)c24)C3)CC1` [Compound 49, (S)-4-(4-acryloylpiperazin-1-yl)-7-(8-methylnaphthalen-1-yl)-N-(1-methylpyrrolidin-3-yl)-5,6,7,8-tetrahydro-1,7-naphthyridine-2-carboxamide]: the IC50 came out at 2180 nM.

Take `C=CC(=O)N1CCN(c2cc(C(=O)N[C@@H]3CCCC[C@H]3N)nc3c2CCN(c2cccc4cccc(C)c24)C3)CC1` [Compound 31, 4-(4-acryloylpiperazin-1-yl)-N-((1R,2R)-2-aminocyclohexyl)-7-(8-methylnaphthalen-1-yl)-5,6,7,8-tetrahydro-1,7-naphthyridine-2-carboxamide]: the half-inhibitory concentration (IC50) was found to be 426 nM.

Turning to `C=CC(=O)N1CCN(c2cc(C(=O)NCCN(C)C)nc3c2CCN(c2cccc4cccc(C)c24)C3)CC1` [Compound 13, 4-(4-acryloylpiperazin-1-yl)-N-(2-(dimethylamino)ethyl)-7-(8-methylnaphthalen-1-yl)-5,6,7,8-tetrahydro-1,7-naphthyridine-2-carboxamide], the IC50 is 826 nM.

`C=CC(=O)N1CCN(c2cc(C(=O)NC3(CN(CC)CC)CC3)nc3c2CCN(c2cccc4cccc(C)c24)C3)CC1` [Compound 26, 4-(4-acryloylpiperazin-1-yl)-N-(1-((diethylamino)methyl)cyclopropyl)-7-(8-methylnaphthalen-1-yl)-5,6,7,8-tetrahydro-1,7-naphthyridine-2-carboxamide]: the IC50 amounted to 187 nM.

As to `C=CC(=O)N1CCN(c2cc(C(=O)N3CCCCC3CN3CCCC3)nc3c2CCN(c2cccc4cccc(C)c24)C3)CC1` (racemic) [Compound 46, rac-1-(4-(7-(8-methylnaphthalen-1-yl)-2-(2-(pyrrolidin-1-ylmethyl)piperidine-1-carbonyl)-5,6,7,8-tetrahydro-1,7-naphthyridin-4-yl)piperazin-1-yl)prop-2-en-1-one], the IC50 is 8880 nM.

As for `C=CC(=O)N1CCN(c2cc(C(=O)N[C@@H]3C[C@@H]3N)nc3c2CCN(c2cccc4cccc(C)c24)C3)CC1` (racemic) [Compound 38, rac-4-(4-acryloylpiperazin-1-yl)-N-(cis-2-aminocyclopropyl)-7-(8-methylnaphthalen-1-yl)-5,6,7,8-tetrahydro-1,7-naphthyridine-2-carboxamide], the IC50 was found to be 4770 nM.

As for `C=CC(=O)N1CCN(c2cc(C(=O)N[C@H]3CCC[C@@H]3N3CCOCC3)nc3c2CCN(c2cccc4cccc(C)c24)C3)CC1` (racemic) [Compound 34, rac-4-(4-acryloylpiperazin-1-yl)-7-(8-methylnaphthalen-1-yl)-N-(trans-2-morpholinocyclopentyl)-5,6,7,8-tetrahydro-1,7-naphthyridine-2-carboxamide], the IC50 is 3570 nM.

On to `C=CC(=O)N1CCN(c2cc(C(=O)N[C@H]3COC[C@H]3N)nc3c2CCN(c2cccc4cccc(C)c24)C3)CC1` (racemic) [Compound 28, rac-4-(4-acryloylpiperazin-1-yl)-N-(cis-4-aminotetrahydrofuran-3-yl)-7-(8-methylnaphthalen-1-yl)-5,6,7,8-tetrahydro-1,7-naphthyridine-2-carboxamide], for which the IC50 came to 7320 nM.

For the compound `C=CC(=O)N1CCN(c2cc(C(=O)NCCCN(C)C)nc3c2CCN(c2cccc4ccccc24)C3)CC1` [Compound 4, 4-(4-acryloylpiperazin-1-yl)-N-(3-(dimethylamino)propyl)-7-(naphthalen-1-yl)-5,6,7,8-tetrahydro-1,7-naphthyridine-2-carboxamide], the IC50 stood at 9400 nM.

For the compound `C=CC(=O)N1CCN(c2cc(C(=O)NCC3CCN(C)C3)nc3c2CCN(c2cccc4cccc(C)c24)C3)CC1` (racemic) [Compound 58, rac-4-(4-acryloylpiperazin-1-yl)-7-(8-methylnaphthalen-1-yl)-N-((1-methylpyrrolidin-3-yl)methyl)-5,6,7,8-tetrahydro-1,7-naphthyridine-2-carboxamide], the IC50 was determined as 2480 nM.

As to `C=CC(=O)N1CCN(c2cc(C(=O)NC(CN(C)C)C(C)C)nc3c2CCN(c2cccc4cccc(C)c24)C3)CC1` (racemic) [Compound 18, rac-4-(4-acryloylpiperazin-1-yl)-N-(1-(dimethylamino)-3-methylbutan-2-yl)-7-(8-methylnaphthalen-1-yl)-5,6,7,8-tetrahydro-1,7-naphthyridine-2-carboxamide], the IC50 came to 145 nM.

`C=CC(=O)N1CCN(c2cc(C(=O)NC3CCCCN(C)C3)nc3c2CCN(c2cccc4cccc(C)c24)C3)CC1` (racemic) [Compound 53, rac-4-(4-acryloylpiperazin-1-yl)-N-(1-methylazepan-3-yl)-7-(8-methylnaphthalen-1-yl)-5,6,7,8-tetrahydro-1,7-naphthyridine-2-carboxamide]: the IC50 was determined as 5360 nM.

With `C=CC(=O)N1CCN(c2cc(C(=O)N[C@H]3CC[C@@H]3N)nc3c2CCN(c2cccc4cccc(C)c24)C3)CC1` (racemic) [Compound 37, rac-4-(4-acryloylpiperazin-1-yl)-N-(trans-2-aminocyclobutyl)-7-(8-methylnaphthalen-1-yl)-5,6,7,8-tetrahydro-1,7-naphthyridine-2-carboxamide], the IC50 was 468 nM.

With `C=CC(=O)N1CCN(c2cc(C(=O)NCC3CCCN(C)C3)nc3c2CCN(c2cccc4cccc(C)c24)C3)CC1` (racemic) [Compound 56, rac-4-(4-acryloylpiperazin-1-yl)-7-(8-methylnaphthalen-1-yl)-N-((1-methylpiperidin-3-yl)methyl)-5,6,7,8-tetrahydro-1,7-naphthyridine-2-carboxamide], the half-inhibitory concentration (IC50) was 3650 nM.

For `C=CC(=O)N1CCN(c2cc(C(=O)N[C@H]3CCCC[C@@H]3N)nc3c2CCN(c2cccc4cccc(C)c24)C3)CC1` [Compound 30, 4-(4-acryloylpiperazin-1-yl)-N-((1S,2S)-2-aminocyclohexyl)-7-(8-methylnaphthalen-1-yl)-5,6,7,8-tetrahydro-1,7-naphthyridine-2-carboxamide], the IC50 was determined as 4900 nM.

For the origin of these results see US20220402916A1, “SMALL MOLECULE INHIBITORS OF KRAS G12C MUTANT” (Merck Sharp & Dohme Corp., priority 2019, published 2022).
